Usually IC50 stands for the concentration that inhibits the measured activity by half.

The record followed here is patent publication US9580437B2, “Triazolopyrimidine compounds and uses thereof” (Novartis AG, priority 2014, dated 2017).

The target in assay [1] is wild type PRC2 (wtPRC2) complex (Homo sapiens (Human), UniProt O75530). Description: EED LC-MS assay. The following applies: read-out: (b) IC50 EED LC-MS Qualified. It is filed as biochemical. Here is the method: A 6 μL solution of 3 μM of the peptide substrate H3K27Me0 (histone H3[21-44]-biotin) in reaction buffer was added to initiate each reaction. […] ELISA (H3K27 Methylation) Assay

The target in another assay is EED (1-441)-His protein (Homo sapiens (Human), UniProt O75530). As to the kind of experiment: EED-H3K27Me3 peptide competition binding assay by AlphaScreen. As to conditions: read-out: (a) IC50 EED Alphascreen binding Qualified. The source says:
EED-H3K27Me3 peptide competition binding assay by AlphaScreen (α-screen)

The structures appear in SMILES notation.

wild type PRC2 (wtPRC2) complex, sequence (O75530 whole entry): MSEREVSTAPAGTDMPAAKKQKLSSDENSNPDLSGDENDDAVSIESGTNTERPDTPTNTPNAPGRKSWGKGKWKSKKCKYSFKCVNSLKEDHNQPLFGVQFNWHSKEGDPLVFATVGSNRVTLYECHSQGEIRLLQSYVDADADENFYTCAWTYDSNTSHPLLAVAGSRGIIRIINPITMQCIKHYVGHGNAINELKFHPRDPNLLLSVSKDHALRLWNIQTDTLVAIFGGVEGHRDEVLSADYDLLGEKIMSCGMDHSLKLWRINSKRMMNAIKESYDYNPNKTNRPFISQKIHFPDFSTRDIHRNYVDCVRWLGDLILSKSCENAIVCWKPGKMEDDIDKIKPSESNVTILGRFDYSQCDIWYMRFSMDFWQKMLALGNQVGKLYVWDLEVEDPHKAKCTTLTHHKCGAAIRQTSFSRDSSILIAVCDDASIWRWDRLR
wild type PRC2 (wtPRC2) complex, sequence (Q15910 whole entry partner): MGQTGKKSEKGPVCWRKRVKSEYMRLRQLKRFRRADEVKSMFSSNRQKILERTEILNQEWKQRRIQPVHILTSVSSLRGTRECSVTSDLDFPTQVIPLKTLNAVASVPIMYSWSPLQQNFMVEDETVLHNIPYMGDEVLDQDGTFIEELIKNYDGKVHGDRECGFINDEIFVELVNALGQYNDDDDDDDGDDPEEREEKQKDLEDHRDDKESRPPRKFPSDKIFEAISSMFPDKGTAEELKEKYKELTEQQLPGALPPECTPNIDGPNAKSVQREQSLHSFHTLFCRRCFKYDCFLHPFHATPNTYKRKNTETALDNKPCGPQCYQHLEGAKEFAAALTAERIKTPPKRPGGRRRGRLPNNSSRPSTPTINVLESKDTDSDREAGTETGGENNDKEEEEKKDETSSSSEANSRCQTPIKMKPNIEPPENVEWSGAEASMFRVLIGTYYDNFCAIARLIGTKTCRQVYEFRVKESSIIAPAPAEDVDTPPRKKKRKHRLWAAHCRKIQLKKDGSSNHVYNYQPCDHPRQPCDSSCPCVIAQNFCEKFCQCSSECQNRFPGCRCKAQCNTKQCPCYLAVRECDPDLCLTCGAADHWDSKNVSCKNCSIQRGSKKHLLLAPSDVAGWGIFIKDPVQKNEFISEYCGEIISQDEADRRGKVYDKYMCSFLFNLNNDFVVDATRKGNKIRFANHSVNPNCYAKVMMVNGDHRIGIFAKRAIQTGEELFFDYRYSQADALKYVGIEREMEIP
wild type PRC2 (wtPRC2) complex, sequence (Q15022 whole entry partner): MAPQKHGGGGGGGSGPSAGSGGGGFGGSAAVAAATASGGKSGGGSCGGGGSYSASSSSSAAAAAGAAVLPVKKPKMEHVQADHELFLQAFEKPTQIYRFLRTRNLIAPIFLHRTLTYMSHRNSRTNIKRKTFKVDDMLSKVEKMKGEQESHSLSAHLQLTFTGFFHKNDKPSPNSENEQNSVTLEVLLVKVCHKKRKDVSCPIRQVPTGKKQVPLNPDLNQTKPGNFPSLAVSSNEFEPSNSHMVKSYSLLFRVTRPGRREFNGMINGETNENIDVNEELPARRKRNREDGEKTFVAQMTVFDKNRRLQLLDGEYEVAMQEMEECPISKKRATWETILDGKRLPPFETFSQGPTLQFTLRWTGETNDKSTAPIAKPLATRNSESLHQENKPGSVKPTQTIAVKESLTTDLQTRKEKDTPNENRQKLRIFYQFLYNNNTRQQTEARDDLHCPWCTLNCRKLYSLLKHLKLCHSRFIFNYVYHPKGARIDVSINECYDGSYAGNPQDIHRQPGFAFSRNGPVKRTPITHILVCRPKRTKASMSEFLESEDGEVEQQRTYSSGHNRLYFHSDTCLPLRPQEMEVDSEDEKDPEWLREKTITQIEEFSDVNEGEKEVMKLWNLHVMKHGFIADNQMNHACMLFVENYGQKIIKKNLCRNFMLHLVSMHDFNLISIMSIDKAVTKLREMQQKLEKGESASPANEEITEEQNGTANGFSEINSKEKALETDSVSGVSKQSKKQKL
EED (1-441)-His protein, sequence (O75530 whole entry): as the sequence (O75530 whole entry) above

Turning to `Cc1ncccc1-c1c(C)nc(NCc2c(F)ccc3c2CCO3)n2cnnc12` [Example 203, N-((5-fluoro-2,3-dihydrobenzofuran-4-yl)methyl)-7-methyl-8-(2-methylpyridin-3-yl)-[1,2,4]triazolo[4,3-c]pyrimidin-5-amine], the IC50 in assay [1] amounted to 338 nM; on EED (1-441)-His protein, 42.4 nM.

Turning to `Cc1c(-c2cnc(NCc3c(F)ccc4c3CCO4)n3cnnc23)ccc[n+]1[O-]` [Example 204, 3-(5-(((5-fluoro-2,3-dihydrobenzofuran-4-yl)methyl)amino)-[1,2,4]triazolo[4,3-c]pyrimidin-8-yl)-2-methylpyridine 1-oxide], the IC50 in assay [1] came to 19.3 nM; at EED (1-441)-His protein, 10.6 nM.

`Fc1ccc2c(c1CNc1ncc(-c3cnccn3)c3nncn13)CCO2` [Example 205, N-((5-fluoro-2,3-dihydrobenzofuran-4-yl)methyl)-8-(pyrazin-2-yl)-[1,2,4]triazolo[4,3-c]pyrimidin-5-amine]: the IC50 worked out at 8.2 nM in assay [1] and 7.3 nM on EED (1-441)-His protein.

For `Fc1ccc2c(c1CNc1ncc(-c3cncnc3)c3nncn13)CCO2` [Example 206, N-((5-fluoro-2,3-dihydrobenzofuran-4-yl)methyl)-8-(pyrimidin-5-yl)-[1,2,4]triazolo[4,3-c]pyrimidin-5-amine], the IC50 in assay [1] turned out to be 9.5 nM; on EED (1-441)-His protein it was 9.1 nM.

Consider `CN(C)Cc1ccc(-c2cnc(NCc3cccc4occc34)n3cnnc23)cc1` [Example 208, N-(benzofuran-4-ylmethyl)-8-(4-((dimethylamino)methyl)phenyl)-[1,2,4]triazolo[4,3-c]pyrimidin-5-amine], for which the IC50 in assay [1] was 12.7 nM; on EED (1-441)-His protein it was 6.2 nM.

In the case of `CN1CCN(c2ccc(-c3cnc(NCc4cccc5occc45)n4cnnc34)cc2)CC1` [Example 209, N-(benzofuran-4-ylmethyl)-8-(4-(4-methylpiperazin-1-yl)phenyl)-[1,2,4]triazolo[4,3-c]pyrimidin-5-amine], the IC50 in assay [1] turned out to be 29 nM; on EED (1-441)-His protein, 36.9 nM.

Turning to `CC(c1ccc(-c2cnc(NCc3cccc4occc34)n3cnnc23)cc1)N1CCCC1` (stereo not shown) [Example 210, N-(benzofuran-4-ylmethyl)-8-(4-(1-(pyrrolidin-1-yl)ethyl)phenyl)-[1,2,4]triazolo[4,3-c]pyrimidin-5-amine], the IC50 in assay [1] was determined as 21.4 nM; at EED (1-441)-His protein it was 18.5 nM.

Turning to `CN1CCN(c2ccc(-c3cnc(NCc4cccc5occc45)n4cnnc34)cn2)CC1` [Example 211, N-(benzofuran-4-ylmethyl)-8-(6-(4-methylpiperazin-1-yl)pyridin-3-yl)-[1,2,4]triazolo[4,3-c]pyrimidin-5-amine], the IC50 in assay [1] stood at 28.8 nM; on EED (1-441)-His protein, 32.2 nM.

With `CN1CCN(c2cc(-c3cnc(NCc4cccc5occc45)n4cnnc34)ccn2)CC1` [Example 212, N-(benzofuran-4-ylmethyl)-8-(2-(4-methylpiperazin-1-yl)pyridin-4-yl)-[1,2,4]triazolo[4,3-c]pyrimidin-5-amine], the IC50 was 33.8 nM in assay [1] and 31.2 nM on EED (1-441)-His protein.

As to `c1cncc(-c2cnc(NCc3cccc4occc34)n3cnnc23)c1` [Example 213, N-(benzofuran-4-ylmethyl)-8-(pyridin-3-yl)-[1,2,4]triazolo[4,3-c]pyrimidin-5-amine], the IC50 in assay [1] is 25.6 nM; on EED (1-441)-His protein, 36.6 nM.

In the case of `CS(=O)(=O)c1ccc(-c2cnc(NCc3cccc4occc34)n3cnnc23)cc1` [Example 214, N-(benzofuran-4-ylmethyl)-8-(4-(methylsulfonyl)phenyl)-[1,2,4]triazolo[4,3-c]pyrimidin-5-amine], the IC50 in assay [1] is 22.5 nM; on EED (1-441)-His protein, 37.4 nM.

In the case of `CC(C)S(=O)(=O)c1ccc(-c2cnc(NCc3cccc4occc34)n3cnnc23)cc1` [Example 215, N-(benzofuran-4-ylmethyl)-8-(4-(isopropylsulfonyl)phenyl)-[1,2,4]triazolo[4,3-c]pyrimidin-5-amine], the results for the IC50 (in assay [1]; on EED (1-441)-His protein) were 21.2 nM and 20.3 nM, respectively.

`O=C(c1ccc(-c2cnc(NCc3cccc4occc34)n3cnnc23)cc1)N1CCCC1` [Example 216, (4-(5-((benzofuran-4-ylmethyl)amino)-[1,2,4]triazolo[4,3-c]pyrimidin-8-yl)phenyl)(pyrrolidin-1-yl)methanone]: the IC50 in assay [1] worked out at 183 nM; at EED (1-441)-His protein it was 132 nM.

Turning to `c1ccc(-c2cnc(NCc3cccc4occc34)n3cnnc23)cc1` [Example 217, N-(benzofuran-4-ylmethyl)-8-phenyl-[1,2,4]triazolo[4,3-c]pyrimidin-5-amine], the results for the IC50 (in assay [1]; on EED (1-441)-His protein) were 111 nM and 363 nM, respectively.

Consider `c1cc(CNc2ncc(-c3ccncc3)c3nncn23)c2ccoc2c1` [Example 218, N-(benzofuran-4-ylmethyl)-8-(pyridin-4-yl)-[1,2,4]triazolo[4,3-c]pyrimidin-5-amine], for which the IC50 turned out to be 26.3 nM in assay [1] and 38.6 nM at EED (1-441)-His protein.

On to `CN(C)Cc1ccc(-c2cnc(NCc3c(F)ccc4occc34)n3cnnc23)cc1` [Example 219, 8-(4-((dimethylamino)methyl)phenyl)-N-((5-fluorobenzofuran-4-yl)methyl)-[1,2,4]triazolo[4,3-c]pyrimidin-5-amine], for which the results for the IC50 (in assay [1]; on EED (1-441)-His protein) were 6.8 nM and 6.5 nM, respectively.

`CN1CCC(S(=O)(=O)c2ccc(-c3cnc(NCc4cccc5occc45)n4cnnc34)cc2)CC1` [Example 220, N-(benzofuran-4-ylmethyl)-8-(4-((1-methylpiperidin-4-yl)sulfonyl)phenyl)-[1,2,4]triazolo[4,3-c]pyrimidin-5-amine]: the IC50 in assay [1] was found to be 21.6 nM; on EED (1-441)-His protein, 14.1 nM.

Regarding `Cc1cc(C)c(-c2cnc(NCc3c(F)ccc4c3CCO4)n3cnnc23)cn1` [Example 222, 8-(4,6-dimethylpyridin-3-yl)-N-((5-fluoro-2,3-dihydrobenzofuran-4-yl)methyl)-[1,2,4]triazolo[4,3-c]pyrimidin-5-amine], the IC50 turned out to be 14 nM in assay [1] and 11.7 nM at EED (1-441)-His protein.

Take `Cc1nc(CN(C)C)ccc1-c1cnc(NCc2c(F)ccc3c2CCO3)n2cnnc12` [Example 223, 8-(6-((dimethylamino)methyl)-2-methylpyridin-3-yl)-N-((5-fluoro-2,3-dihydrobenzofuran-4-yl)methyl)-[1,2,4]triazolo[4,3-c]pyrimidin-5-amine]: the values for the IC50 (in assay [1]; on EED (1-441)-His protein) were 18.4 nM and 8.4 nM, respectively.

As for `CCc1cc(C)c(-c2cnc(NCc3c(F)ccc4c3CCO4)n3cnnc23)cn1` [Example 224, 8-(6-ethyl-4-methylpyridin-3-yl)-N-((5-fluoro-2,3-dihydrobenzofuran-4-yl)methyl)-[1,2,4]triazolo[4,3-c]pyrimidin-5-amine], the figures for the IC50 (in assay [1]; at EED (1-441)-His protein) were 1.9 nM and 1.5 nM, respectively.

With `Cc1nc(OC2CC2)ncc1-c1cnc(NCc2c(F)ccc3c2CCO3)n2cnnc12` [Example 225, 8-(2-cyclopropoxy-4-methylpyrimidin-5-yl)-N-((5-fluoro-2,3-dihydrobenzofuran-4-yl)methyl)-[1,2,4]triazolo[4,3-c]pyrimidin-5-amine], the IC50 in assay [1] turned out to be 10.6 nM; on EED (1-441)-His protein it was 7.5 nM.

For the molecule `CCOc1ncc(-c2cnc(NCc3c(F)ccc4c3CCO4)n3cnnc23)c(C)n1` [Example 226, 8-(2-ethoxy-4-methylpyrimidin-5-yl)-N-((5-fluoro-2,3-dihydrobenzofuran-4-yl)methyl)-[1,2,4]triazolo[4,3-c]pyrimidin-5-amine], the figures for the IC50 (in assay [1]; on EED (1-441)-His protein) were 5 nM and 3.9 nM, respectively.

For the molecule `Cn1ncc(-c2cnc(NCc3c(F)ccc4c3CCO4)n3cnnc23)c1CO` [Example 227, (4-(5-(((5-fluoro-2,3-dihydrobenzofuran-4-yl)methyl)amino)-[1,2,4]triazolo[4,3-c]pyrimidin-8-yl)-1-methyl-1H-pyrazol-5-yl)methanol], the IC50 in assay [1] was determined as 7.5 nM; on EED (1-441)-His protein it was 6.1 nM.

Regarding `Cc1cnc(Cl)cc1-c1cnc(NCc2c(F)ccc3c2CCO3)n2cnnc12` [Example 228, 8-(2-chloro-5-methylpyridin-4-yl)-N-((5-fluoro-2,3-dihydrobenzofuran-4-yl)methyl)-[1,2,4]triazolo[4,3-c]pyrimidin-5-amine], the IC50 in assay [1] came to 9 nM; on EED (1-441)-His protein it was 8.2 nM.

Consider `CCc1ccc(-c2cnc(NCc3c(F)ccc4c3CCO4)n3cnnc23)c(C)n1` [Example 229, 8-(6-ethyl-2-methylpyridin-3-yl)-N-((5-fluoro-2,3-dihydrobenzofuran-4-yl)methyl)-[1,2,4]triazolo[4,3-c]pyrimidin-5-amine], for which the IC50 in assay [1] was 6.7 nM; at EED (1-441)-His protein, 5.9 nM.

Take `COc1nccc(-c2cnc(NCc3c(F)ccc4c3CCO4)n3cnnc23)c1C` [Example 230, N-((5-fluoro-2,3-dihydrobenzofuran-4-yl)methyl)-8-(2-methoxy-3-methylpyridin-4-yl)-[1,2,4]triazolo[4,3-c]pyrimidin-5-amine]: the IC50 in assay [1] was 24.5 nM; at EED (1-441)-His protein, 12.9 nM.

Consider `Fc1ccc2c(c1CNc1ncc(-c3ccccn3)c3nncn13)CCO2` [Example 231, N-((5-fluoro-2,3-dihydrobenzofuran-4-yl)methyl)-8-(pyridin-2-yl)-[1,2,4]triazolo[4,3-c]pyrimidin-5-amine], for which the IC50 turned out to be 6 nM in assay [1] and 6.1 nM on EED (1-441)-His protein.

Take `Cc1cncc(-c2cnc(NCc3c(F)ccc4c3CCO4)n3cnnc23)c1` [Example 232, N-((5-fluoro-2,3-dihydrobenzofuran-4-yl)methyl)-8-(5-methylpyridin-3-yl)-[1,2,4]triazolo[4,3-c]pyrimidin-5-amine]: the IC50 was 13.1 nM in assay [1] and 6.2 nM on EED (1-441)-His protein.

In the case of `Cc1cn(-c2cnc(NCc3c(F)ccc4c3CCO4)n3cnnc23)cn1` [Example 233, N-((5-fluoro-2,3-dihydrobenzofuran-4-yl)methyl)-8-(4-methyl-1H-imidazol-1-yl)-[1,2,4]triazolo[4,3-c]pyrimidin-5-amine], the IC50 in assay [1] stood at 11.5 nM; on EED (1-441)-His protein, 3.9 nM.
